Reference: patent publication US12453731B2, “Aniline-based WDR5 protein-protein interaction inhibitor, and preparation method and use thereof” (CHINA PHARMACEUTICAL UNIVERSITY, priority 2019, dated 2025)

How the values were obtained:
[1] = target: MLL1-WDR5 PPI (Homo sapiens (Human), UniProt P61964); assay: fluorescent probe assay of MLL1-WDR5 protein-protein interaction inhibition; format: binding; conditions: fluorescent probe based on MLL1 peptide, incubation 0.5 hrs, read-out: MLL1-WDR5 PPI inhibiting activity IC50
Procedure: In the present disclosure, a fluorescent molecular probe was constructed based on a MLL1 peptide fragment binding to WDR5, for use as a method for study on an aniline compound interfering with WDR5 protein-protein interaction, to determine an inhibition rate of the aniline compound at various concentrations, and then compute the IC50 value. Specific experimental steps: 20 μL of WDR5 protein, 20 μL of a fluorescent probe, and 20 μL of a compound of different concentration gradients were added to a 384-well plate respectively. After incubation for 0.5 hrs, the fluorescence was read on a multifunctional microplate reader at an excitation wavelength of 485 nm and an emission wavelength of 535 nm, to compute the mP value. The inhibition rate was computed as per the formula below, and then the IC50 value was computed using GraphPad software.

[2] = system: Molm-13 human acute myeloid leukemia cells; assay: anti-proliferative activity against leukemia cells Molm-13; format: cell-based; conditions: Homo sapiens, MOLM-13, Molm-13 cells
Text: (§1) Some compounds of the present disclosure have also been tested for the antiproliferative activity against leukemia cells.

[3] = system: methylation level of H3K4; assay: inhibition of the methylation level of H3K4 (methyltransferase activity); format: biochemical
[4] = system: MV4-11 human acute mononuclear leukemia cells; assay: anti-proliferative activity against leukemia cells MV4-11; format: cell-based; conditions: Homo sapiens, MV4-11, MV4-11 cells; read-out: GI50 (MV-411)
Text: as §1

[5] = system: MLL1 (H3K4me1/2/3 expression level); assay: Western blot, methyltransferase function of MLL1 at the cellular level; format: cell-based; conditions: FIG. 1
Text: Moreover, some compounds have also been tested by Western-blot.

[6] = system: MV4-11 tumor; assay: MV4-11 nude mouse xenograft tumor model; format: in vivo; conditions: MV4-11 xenograft in nude mice, oral administration, FIG. 3
Text: In addition, some of the compounds of the present disclosure have also been tested for the anti-tumor activity at the animal level. A nude mice xenograft tumor model of leukemia cells MV4-11 was selected for oral administration.

[7] = system: Hox and Meis-1 genes; assay: RT-PCR, expression of downstream Hox and Meis-1 genes at the cellular level; format: cell-based; conditions: FIG. 2
Text: Furthermore, some of the compounds of the present disclosure have also been subjected to a RT-PCR experiment at the cellular level. The results of the inhibitory effect of some compounds on the expression levels of downstream Hox and Meis-1 genes at the cellular level are shown in FIG. 2.

| IC50 [1] | GI50 [2] | Whether the methylation level of H3K4 was inhibited [3] | GI50 [4] | Structure (SMILES) | inhibition of catalytic activity of MLL1, expression level of H3K4me1/2/3 [5] | inhibition of tumor growth [6] | expression levels of Hox and Meis-1 genes [7] |
| --- | --- | --- | --- | --- | --- | --- | --- |
| 0.085 µM | 20.5 µM | Yes | 21.1 µM | CN1CCN(c2ccc(-c3ccc(NC(=O)CC4CCOCC4)cc3)c(F)c2Nc2ncnc(Cl)c2N)CC1 [Example 61] |  |  |  |
| 0.034 µM | 22 µM | Yes | 17.4 µM | CC(C)C(N)C(=O)Nc1ccc(-c2ccc(N3CCN(C)CC3)c(Nc3ncnc(Cl)c3N)c2F)cc1 (stereo not drawn) [Example 62, 2-amino-N-(3″-((5-amino-6-chloropyrimidin-4-yl)amino)-2′-fluoro-4″-(4-methylpiperazin-1-yl)-[1,1′biphenylyl]-4-yl)-3-methylbutyramide] |  |  |  |
| 0.033 µM | 28.6 µM | Yes | 20.4 µM | CN1CCN(c2ccc(-c3ccc(NC(=O)CN)cc3)c(F)c2Nc2ncnc(Cl)c2N)CC1 [Example 64, 2-amino-N-(3″-((5-amino-6-chloropyrimidin-4-yl)amino)-2′-fluoro-4″-(4-methylpiperazin-1-yl)-[1,1′biphenylyl]-4-yl)acetamide] |  |  |  |
| 0.036 µM | 16.5 µM | Yes | 19.6 µM | CN1CCN(c2cc(F)c(-c3ccc(C(=O)N4CCOCC4)cc3)cc2Nc2ncnc(Cl)c2N)CC1 [Example 67, (5″-((5-amino-6-chloropyrimidin-4-yl)amino)-2′-fluoro-4″-(4-methylpiperazin-1-yl)-[1,1′-biphenyl]-4-yl)(morpholino)methanone] |  |  |  |
| 0.074 µM | 23.1 µM | Yes | 27.7 µM | CN1CCN(c2cc(F)c(-c3ccc(C(=O)NCCN4CCOCC4)cc3)cc2Nc2ncnc(Cl)c2N)CC1 [Example 68] |  |  |  |
| 0.021 µM | 17.3 µM | Yes | 25.6 µM | CN1CCN(c2cc(F)c(-c3ccc(C(=O)NCCCN4CCOCC4)cc3)cc2Nc2ncnc(Cl)c2N)CC1 [Example 69] |  |  |  |
| 0.033 µM | 13.2 µM | Yes | 20.2 µM | CN1CCN(c2cc(F)c(-c3ccc(C(=O)N4CCC(O)CC4)cc3)cc2Nc2ncnc(Cl)c2N)CC1 [Example 70] |  |  |  |
| 0.036 µM | 12.3 µM | Yes | 15.7 µM | CN1CCN(c2cc(F)c(-c3ccc(C(=O)NCC4CCOCC4)cc3)cc2Nc2ncnc(Cl)c2N)CC1 [Example 71, 5″-((5-amino-6-chloropyrimidin-4-yl)amino)-2′-fluoro-4″-(4-methylpiperazin-1-yl)-N-((tetrahydro-2H-pyran-4-yl)methyl)-[1,1′-biphenylyl]-4-carboxamide] |  |  |  |

| Structure (SMILES) | IC50 [1] | GI50 [2] | Whether the methylation level of H3K4 was inhibited [3] | GI50 [4] | inhibition of catalytic activity of MLL1, expression level of H3K4me1/2/3 [5] | inhibition of tumor growth [6] | expression levels of Hox and Meis-1 genes [7] |
| --- | --- | --- | --- | --- | --- | --- | --- |
| CN1CCN(c2cc(F)c(-c3ccc(C(=O)N(C)C)cc3)cc2Nc2ncnc(Cl)c2N)CC1 [Example 72, 5″-((5-amino-6-chloropyrimidin-4-yl)amino)-2′-fluoro-N,N-dimethyl-4″-(4-methylpiperazin-1-yl)-[1,1′-biphenyl]-4-carboxamide] | 0.029 µM | 13.1 µM | Yes | 12.6 µM | inhibit the catalytic activity of MLL1 dose-dependently | inhibit the tumor growth dose-dependently | down-regulate the expression levels of Hox and Meis-1 genes dose-dependently |
